In patent US9580430B2, “9H-pyrimido[4,5-B]indoles and related analogs as BET bromodomain inhibitors” (THE REGENTS OF THE UNIVERSITY OF MICHIGAN, priority 2014, dated 2017):
Where two headings read alike, the source gives them in different places.

Legend:
recombinant BRD4 BD1 = target: T1, recombinant BRD4 BD1 (Homo sapiens, UniProt O60885); assay: Competitive fluorescence-polarization (FP) binding assay, BRD4 BD1; details: for Ki: read-out: Binding affinities (FP) BRD4BD1 Ki; on IC50 (nM) BRD4 BD1: probe 1.5 nM
T1 construct: for recombinant BRD4 BD1 and BRD4 BD2 proteins
Experimental: (§1) Fluorescence Polarization (FP) competitive binding studies were carried out using a FAM labeled fluorescent probe (ZBA248 or BRD-1F) to determine binding affinities of representative Compounds of the Disclosure for recombinant BRD4 BD1 and BRD4 BD2 proteins. For example, equilibrium dissociation constants (Kd) values of ZBA248 to these […] proteins were determined from protein saturation experiments by monitoring the total fluorescence polarization of mixtures composed with the fluorescent probe at a fixed concentration and proteins with increasing concentrations up to full saturation. Serial dilutions of testing protein were mixed with ZBA248 to a final volume of 200 μl in the assay buffer. […] Plates were incubated at room temperature for 30 minutes with gentle shaking to assure equilibrium. […] Kd values of ZBA248 were calculated by fitting the sigmoidal dose-dependent FP increases as a function of protein concentrations using Graphpad Prism 6.0 software (Graphpad Software, San Diego, Calif.).
(§2) The IC50 and Ki values of representative Compounds of the Disclosure were determined in a competitive binding experiment as described above. Mixtures of 10 μl of the tested compounds in assay buffer with 40% Ethylene Glycol and 190 μl of preincubated protein/probe complex solution in the assay buffer (100 mM potassium phosphate, pH 6.5, 0.01% Triton X-100) were added into assay plates which were incubated at room temperature for 30 minutes with gentle shaking. Final concentrations of proteins were 10 and 6 nM in assays for BD1 and BD2 of BRD4, respectively. […] FP values were measured as described above. IC50 values were determined by nonlinear regression fitting of the competition curves.

recombinant BRD4 BD2 = target: T2, recombinant BRD4 BD2 (Homo sapiens, UniProt O60885); assay: Competitive fluorescence-polarization (FP) binding assay, BRD4 BD2; details: for Ki: read-out: Binding affinities (FP) BRD4BD2 Ki; on IC50 (nM) BRD4 BD2: probe 1.5 nM
T2 construct: for recombinant BRD4 BD1 and BRD4 BD2 proteins
Experimental: as §1, §2

MDA-MB-436 = assay: Cell growth inhibition, MDA-MB-436 breast cancer cells (WST-8); type: cell-based; details: Homo sapiens, 96 h; MDA-MB-436 cells, 4 days; read-out: Cellular data MDA-MB-436 IC50
Experimental: All the breast cancer cell lines were obtained from the ATCC. Cell viability was determined using the WST-8 (2-(2-methoxy-4-nitrophenyl)-3-(4-nitrophenyl)-5-(2,4-disulfophenyl)-2H-tetrazolium, monosodium salt) based Cell Counting-8 Kit (Dojindo Molecular Technologies, Inc., Rockville, Md.) according to the manufacture's instruction. […] The absorbance was measured at 450 nm using a SPECTRAmax PLUS plate reader (Molecular Devices, Sunnyvale, Calif.). The IC50 was calculated using the GraphPad Prism 5 software.

[1] = competitive FP assay, protein 10 nM, probe […], read-out: IC50 (nM) BRD4 BD1
[2] = competitive FP assay, protein 6 nM, probe […], read-out: IC50 (nM) BRD4 BD2
[3] = FP competitive binding, BRD4 BD1, read-out: Binding affinities (FP) BRD4BD1 IC50
[4] = FP competitive binding, BRD4 BD1
[5] = FP competitive binding, BRD4 BD2, read-out: Binding affinities (FP) BRD4BD2 IC50
[6] = FP competitive binding, BRD4 BD2

| Compound | IC50 (recombinant BRD4 BD1; [1]) [nM] | IC50 (recombinant BRD4 BD2; [2]) [nM] | IC50 (recombinant BRD4 BD1; [3]) [nM] | Ki (recombinant BRD4 BD1; [4]) [nM] | IC50 (recombinant BRD4 BD2; [5]) [nM] | Ki (recombinant BRD4 BD2; [6]) [nM] | IC50 (MDA-MB-436) [nM] |
| --- | --- | --- | --- | --- | --- | --- | --- |
| COc1cc2c(cc1-c1c(C)noc1C)[nH]c1nc(C)nc(Sc3ccccc3C(C)C)c12 [Cpd. No. 25, 4-(4-((2-isopropylphenyl)thio)-6-methoxy-2-methyl-9H-pyrimido[4,5-b]indol-7-yl)-3,5-dimethylisoxazole] | > 1000 | > 1000 |  |  |  |  |  |
| COc1cc2c(cc1-c1c(C)noc1C)[nH]c1nc(C)nc(Sc3c[nH]c4ccccc34)c12 [Cpd. No. 26, 4-(4-((1H-indol-3-yl)thio)-6-methoxy-2-methyl-9H-pyrimido[4,5-b]indol-7-yl)-3,5-dimethylisoxazole] | > 1000 | > 1000 |  |  |  |  |  |
| COc1cc2c(cc1-c1c(C)noc1C)[nH]c1nc(C)nc(Sc3cccc(C(C)(C)C)c3)c12 [Cpd. No. 27, 4-(4-((3-(tert-butyl)phenyl)thio)-6-methoxy-2-methyl-9H-pyrimido[4,5-b]indol-7-yl)-3,5-dimethylisoxazole] | > 1000 | > 1000 |  |  |  |  |  |
| COc1cc2c(cc1-c1c(C)noc1C)[nH]c1nc(C)nc(Oc3cccc(Cl)c3)c12 [Cpd. No. 95, 4-(4-(3-chlorophenoxy)-6-methoxy-2-methyl-9H-pyrimido[4,5-b]indol-7-yl)-3,5-dimethylisoxazole] | > 1000 | > 1000 |  |  |  |  |  |
| COc1cc2c(cc1-c1c(C)noc1C)[nH]c1nc(C)nc(Oc3cccnc3)c12 [Cpd. No. 96, 4-(6-methoxy-2-methyl-4-(pyridin-3-yloxy)-9H-pyrimido[4,5-b]indol-7-yl)-3,5-dimethylisoxazole] | 864 | 379 |  |  |  |  |  |
| COc1cc2c(cc1-c1c(C)noc1C)[nH]c1nc(C)nc(Nc3cc(C4CC4)nn3CCN(C)C)c12 [Cpd. No. 160, N-(3-Cyclopropyl-1-(2-(dimethylamino)ethyl)-1H-pyrazol-5-yl)-7-(3,5-dimethylisoxazol-4-yl)-6-methoxy-2-methyl-9H-pyrimido[4,5-b]indol-4-amine] | 14.1 |  |  |  |  |  |  |
| COc1cc2c(cc1-c1c(C)noc1C)[nH]c1nc(C)nc(Nc3cc(C4CC4)nn3C3CNC3)c12 [Cpd. No. 163, N-(1-(Azetidin-3-yl)-3-cyclopropyl-1H-pyrazol-5-yl)-7-(3,5-dimethylisoxazol-4-yl)-6-methoxy-2-methyl-9H-pyrimido[4,5-b]indol-4-amine] | 8.8 |  |  |  |  |  |  |
| COc1cc2c(cc1-c1c(C)noc1C)[nH]c1nc(N)nc(Nc3cc(C4CC4)nn3C)c12 [Cpd. No. 206, N4-(3-cyclopropyl-1-methyl-1H-pyrazol-5-yl)-7-(3,5-dimethylisoxazol-4-yl)-6-methoxy-9H-pyrimido[4,5-b]indole-2,4-diamine] | 5.6 |  |  |  |  |  |  |
| COCc1nc(Nc2cc(C3CC3)nn2C)c2c(n1)[nH]c1cc(-c3c(C)noc3C)c(OC)cc12 [Cpd. No. 207, N-(3-cyclopropyl-1-methyl-1H-pyrazol-5-yl)-7-(3,5-dimethylisoxazol-4-yl)-6-methoxy-2-(methoxymethyl)-9H-pyrimido[4,5-b]indol-4-amine] | 2.9 | 1.3 |  |  |  |  |  |
| COc1cc2c(cc1-c1c(C)noc1C)[nH]c1nc(C)nc(Nc3ccnc(C)c3)c12 [Cpd. No. 248, 7-(3,5-dimethylisoxazol-4-yl)-6-methoxy-2-methyl-N-(2-methylpyridin-4-yl)-9H-pyrimido[4,5-b]indol-4-amine] | 70 | 79 |  |  |  |  |  |
| COCCn1nc(C2CC2)cc1Nc1nc(C)nc2[nH]c3cc(-c4c(C)noc4C)c(OC)cc3c12 [Cpd. No. 266, N-(3-Cyclopropyl-1-(2-methoxyethyl)-1H-pyrazol-5-yl)-7-(3,5-dimethylisoxazol-4-yl)-6-methoxy-2-methyl-9H-pyrimido[4,5-b]indol-4-amine] | 10.3 | 3.1 |  |  |  |  |  |
| CCn1nc(C2CC2)cc1Nc1nccc2[nH]c3cc(-c4c(C)noc4C)c(OC)cc3c12 [Cpd. No. 285, N-(3-cyclopropyl-1-ethyl-1H-pyrazol-5-yl)-7-(3,5-dimethylisoxazol-4-yl)-8-methoxy-5H-pyrido[4,3-b]indol-1-amine] |  |  | 18.9 | 3.7 | 9.8 | 2.1 |  |
| COc1cc2c(cc1-c1c(C)noc1C)[nH]c1ccnc(Nc3c4c(nn3C(C)C)CCC4)c12 [Cpd. No. 286, 7-(3,5-dimethylisoxazol-4-yl)-N-(2-isopropyl-2,4,5,6-tetrahydrocyclopenta[c]pyrazol-3-yl)-8-methoxy-5H-pyrido[4,3-b]indol-1-amine] |  |  | 28.7 | 5.1 | 18.5 | 4.6 |  |
| COc1cc2c(nc1-c1c(C)noc1C)[nH]c1nc(C)nc(Nc3cc(C4CC4)nn3C)c12 [Cpd. No. 304] |  |  | 63 | 15 | 318 | 94 |  |

More lines, now with the values ahead:

| IC50 (recombinant BRD4 BD1; [1]) [nM] | IC50 (recombinant BRD4 BD2; [2]) [nM] | IC50 (recombinant BRD4 BD1; [3]) [nM] | Ki (recombinant BRD4 BD1; [4]) [nM] | IC50 (recombinant BRD4 BD2; [5]) [nM] | Ki (recombinant BRD4 BD2; [6]) [nM] | IC50 (MDA-MB-436) [nM] | Compound |
| --- | --- | --- | --- | --- | --- | --- | --- |
|  |  | 378 | 143 | 313 | 113 | 1280 | COc1nc2c(cc1-c1c(C)noc1C)[nH]c1nc(C)nc(Nc3cc(C)nn3C(C)(C)C)c12 [Cpd. No. 310, N-(1-(tert-butyl)-3-methyl-1H-pyrazol-5-yl)-7-(3,5-dimethylisoxazol-4-yl)-6-methoxy-2-methyl-9H-pyrido[2′,3′:4,5]pyrrolo[2,3-d] pyrimidin-4-amine] |
| 8.1 | 2.8 |  |  |  |  |  | COc1cc2c3c(N(C)c4cc(C5CC5)nn4C4CN(C)C4)nc(C)nc3n(C)c2cc1-c1c(C)noc1C [compound 258, N-(3-Cyclopropyl-1-(1-methylazetidin-3-yl)-1H-pyrazol-5-yl)-7-(3,5-dimethyl-isoxazol-4-yl)-6-methoxy-N,2,9-trimethyl-9H-pyrimido[4,5-b]indol-4-amine] |
|  |  | 1090 | 602 | > 1000 |  | 1100 | COc1nc2c(cc1-c1c(C)noc1C)[nH]c1nc(C)nc(Nc3nn(C)c4ncccc34)c12 [compound 311, 7-(3,5-dimethylisoxazol-4-yl)-6-methoxy-2-methyl-N-(1-methyl-1H-pyrazolo[3,4-b]pyridin-3-yl)-9H-pyrido[2′,3′:4,5]pyrrolo [2,3-d]pyrimidin-4-amine] |
|  |  | 378 | 140 | 346 | 101 | 1060 | COc1nc2c(cc1-c1c(C)noc1C)[nH]c1nc(C)nc(Nc3c(C)cnn3C(C)C)c12 [compound 312, 7-(3,5-dimethylisoxazol-4-yl)-N-(1-isopropyl-4-methyl-1H-pyrazol-5-yl)-6-methoxy-2-methyl-9H-pyrido[2′,3′:4,5]pyrrolo[2,3-d] pyrimidin-4-amine] |
|  |  | 4070 | 1200 | 4070 | 1140 | > 2000 | COc1nc2c(cc1-c1c(C)noc1C)[nH]c1nc(C)nc(Nc3cccc(C)c3)c12 [compound 313, 7-(3,5-dimethylisoxazol-4-yl)-6-methoxy-2-methyl-N-(m-tolyl)-9H-pyrido[2′,3′:4,5]pyrrolo[2,3-d] pyrimidin-4-amine] |
|  |  | 457 | 146 | 986 | 209 | > 2000 | COc1nc2c(cc1-c1c(C)noc1C)[nH]c1nc(C)nc(Nc3cc(C(C)(C)C)nn3C)c12 [compound 314, N-(3-(tert-butyl)-1-methyl-1H-pyrazol-5-yl)-7-(3,5-dimethylisoxazol-4-yl)-6-methoxy-2-methyl-9H-pyrido[2′,3′:4,5]pyrrolo [2,3-d]pyrimidin-4-amine] |
|  |  | 28 | 7.8 | 16 | 4.7 | 164 | COc1nc2c(cc1-c1c(C)noc1C)[nH]c1nc(C)nc(N(C)c3cc(C(C)(C)C)nn3C)c12 [compound 315, N-(3-(tert-butyl)-1-methyl-1H-pyrazol-5-yl)-7-(3,5-dimethylisoxazol-4-yl)-6-methoxy-N,2-dimethyl-9H-pyrido[2′,3′:4,5]pyrrolo[2,3-d] pyrimidin-4-amine] |
|  |  | 317 | 106 | 311 | 106 | 1020 | COc1nc2c(cc1-c1c(C)noc1C)[nH]c1nc(C)nc(N(C)c3cc(C)nn3C(C)(C)C)c12 [compound 316, N-(1-(tert-butyl)-3-methyl-1H-pyrazol-5-yl)-7-(3,5-dimethylisoxazol-4-yl)-6-methoxy-N,2-dimethyl-9H-pyrido[2′,3′:4,5]pyrrolo [2,3-d]pyrimidin-4-amine] |
